{"source": "patent EP2902035B1", "about": "“Cell-permeable peptide inhibitors of the JNK signal transduction pathway for use in the treatment of inflammatory eye diseases” (Xigen Inflammation Ltd., priority 2010, dated 2012)", "format_in_all_cases": "in vivo, Lewis rats", "key": {"[1]": {"tested_on": "ED1 positive cells", "experiment": "Quantification of infiltrating ED1 positive cells on histological sections in EIU", "settings": "IVT injection (SEQ ID NO: 11: 0.2 µg/injection); 24 hours after LPS challenge; mean ± SEM", "experimental": "(§1) For immunohistochemistry, eyeballs were collected and fixed for 1h at room temperature in phosphate buffered saline (PBS) containing 4% paraformaldehyde before being rinsed overnight in PBS. The next day, samples were embedded and frozen in optimal cutting-temperature (OCT) compound (Tissue-Tek®, Sakura Finetek, Zoeterwoude, Netherland) and stored at -80°C. Frozen antero-posterior sections of eyes (10 µm thick) were performed at the optic nerve level using a cryostat (Leica CM 3050S, Rueil-Malmaison, France) and mounted on super-frost slides for immunohistochemical analysis.\n(§2) A second set of experiment was designed to evaluate the anti-inflammatory effect of the JNK-inhibitor (poly-)peptide of SEQ ID NO: 11 at the cellular and tissue level as well as the biodistribution of this molecule 24 hours after administration. Rats were randomized into 11 experimental groups. 6 groups of rats with uveitis: untreated uveitic rats, rats injected intravenously with NaCl or the JNK-inhibitor (poly-)peptide of SEQ ID NO: 11 and rats injected intravitreously with the vehicle, the JNK-inhibitor (poly-)peptide of SEQ ID NO: 11 or dexamethasone. The 5 additional groups without uveitis were: untreated healthy rats, rats treated by NaCl IV or the JNK-inhibitor (poly-)peptide of SEQ ID NO: 11 IV and rats injected IVT with NaCl or the JNK-inhibitor (poly-)peptide of SEQ ID NO: 11. Three eyes from separate rats were collected per group and used for immunohistochemistry.\n(§3) To characterize the cellular infiltrate, sections were double-stained with ED1 and iNOS. […] After staining nuclei with DAPI (Sigma-Aldrich, Saint-Quentin Fallavier, France), sections were mounted in PBS/Glycerol (1/1) and observed by fluorescence photomicroscopy (FXA, Microphot, Nikon, Melville, USA). […] ED1 positive cells and polymorphonuclear cells, identified by the shape of their nuclei stained with DAPI, were quantified on histological sections. […] Results were expressed as mean ± standard error of the mean (SEM)."}, "[2]": {"tested_on": "Endotoxin-Induced Uveitis (EIU)", "experiment": "Scoring of Endotoxin-Induced Uveitis (EIU) by slit lamp", "settings": "intravitreous (IVT) administration at LPS challenge (SEQ ID NO: 11: 0.2 µg/injection); scored at 24 hours on a scale from 0 to 5; mean ± SEM", "experimental": "For intravenous (IV) injection, 100 µL of saline (NaCl 0.9%) or the JNK-inhibitor (poly-)peptide of SEQ ID NO: 11 (20 µg/kg in saline) were injected in a tail vein using a 25G-needle connected on a 1 mL syringe (Becton Dickinson, France). For intravitreous (IVT) injection, 5 µL of saline or the JNK-inhibitor (poly-)peptide of SEQ ID NO: 11 (0.2 µg/injection in saline) were injected in both eyes using a 30G disposable needle (BD-microfine syringe, nm Médical, Asnière, France). The IV dose of 20 µg/kg (i.e. 3.5 µg/rat in rats weighing 175g) was chosen according to studies showing that the JNK-inhibitor (poly-)peptide of SEQ ID NO: 11 is active at very low doses in other models. For intravitreous injections, the inventors used the minimal dose used in direct ear application after acute noise trauma in patients. This corresponds to 5% of the dose injected intravenously. […]\nIn a first set of experiment, 70 rats were randomized into 14 experimental groups with 5 rats per group. […] Clinical ocular inflammation was recorded only at 24 hours (see Scoring of Endotoxin-Induced Uveitis (EIU) section). […]\nAnimals were examined by slit lamp at 24 hours, the clinical peak of the disease in our experiments. The intensity of clinical ocular inflammation was scored on a scale from 0 to 5 for each eye as described previously 10: grade (0) indicates no inflammation; grade (1) indicates the presence of a minimal iris and conjunctival vasodilation but without the observation of flare or cells in the anterior chamber (AC); grade (2) indicates the presence of moderate iris and conjunctival vessel dilation but without evident flare or cells in the AC; grade (3) indicates the presence of intense iris vessels dilation, flare and less than 10 cells per slit lamp field in the AC; grade (4) indicates the presence of more severe clinical signs than grade 3, with more than 10 cells in the AC with or without the formation of a hypopion; grade (5) indicates the presence of intense inflammatory reaction, fibrin formation in the AC and total seclusion of the pupil. […]"}, "[3]": {"tested_on": "polymorphonuclear cells (PMN)", "experiment": "Quantification of infiltrating polymorphonuclear cells on histological sections in EIU", "settings": "IVT injection (SEQ ID NO: 11: 0.2 µg/injection); at 24 hours; mean ± SEM", "experimental": "as §1, §2, §3"}}}
{"substance": "Dexamethasone sodium phosphate", "values": [{"measurement": "number of ED1 positive infiltrating cells", "setting": "[1]", "value": "79 ± 15"}, {"measurement": "EIU clinical scores", "setting": "[2]", "value": "1.8 ± 0.4", "unit": "A.U."}, {"measurement": "number of polymorphonuclear cells (PMN)", "setting": "[3]", "value": "42 ± 11"}]}
